Assay in all cases: NCI anticancer screen, dose series, 48 h
In assay [1] the test system is 786-0 renal.
Assay [2] concerns BT-549 breast.
Assay [3] concerns COLO 205 colon.
For assay [4], the system named is HCT-116 colon.
Assay [5] deals with HOP-92 NSCLC.
In assay [6] the test system is HS 578T breast.
Assay [7] concerns IGROV1 ovarian.
The subject of assay [8] is M14 melanoma.
The test system of assay [9] is MCF7 breast.
Assay [10] concerns SK-MEL-5 melanoma.
Assay [11] relates to TK-10 renal.
The test system of assay [12] is UACC-257 melanoma.
Assay [13] concerns HOP-62 NSCLC.

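Step 1: Grow cells in 96-well plates. Step 2: Expose to compound for 48 hours at 5 concentrations. Step 3: Interpolate endpoints linearly; if unreached, use highest concentration. TGI is the concentration that stops growth completely.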 Bounds are passed on as bounds.

`Cc1c(C)c2c(c(N)c1C#N)C(=O)N(NC(=O)c1ccccc1)C2=O`: the TGI in assay [1], in assay [2], in assay [3], in assay [4], in assay [5] and in assay [6] was greater than 100 µM in each case. Further, the TGI in [7], in assay [8], in assay [9], in assay [10], in assay [11] and in [12] was greater than 100 µM throughout.

For the compound `N#C[C@H](c1ccccn1)c1nc2ccccc2nc1Cl`, the TGI in assay [1], in assay [2], in assay [3], in assay [4], in assay [13] and in assay [5] was greater than 100 µM throughout. Moreover, the TGI in assay [6], in assay [7], in assay [8], in assay [9], in assay [10] and in [12] was greater than 100 µM throughout.

As to `C=CCn1c(N)c(C#N)c(C#N)c1-c1ccccc1`, the TGI in assay [1], in [2], in assay [3], in assay [13], in assay [5] and in [6] was greater than 100 µM throughout. The TGI in assay [7], in [8], in assay [9], in [10], in assay [11] and in [12] was greater than 100 µM throughout.

`COC(=O)/C=C(\C(=O)OC)C1C(=O)Oc2c(C)c(=O)c3ccccc3n21` (centres undefined): the TGI in assay [1], in assay [2], in assay [3], in assay [4], in assay [13] and in [6] was greater than 100 µM in each case. Besides, the TGI in [7], in assay [8], in [9], in assay [10], in [11] and in assay [12] was greater than 100 µM each time.

Consider `O=C1COc2cccnc2N1CCCCO`, for which the TGI in assay [1], in assay [2], in assay [4], in assay [13], in assay [5] and in assay [6] was greater than 100 µM throughout. The TGI in [7], in assay [9], in assay [10], in [11] and in [12] was greater than 100 µM each time.

For `CC(=O)Nc1sc(Br)cc1S(=O)(=O)c1ccc(Cl)cc1`, the TGI in assay [1] is 92.3 µM; in assay [2], 74.8 µM; in [4], greater than 100 µM; in assay [5], 59.5 µM; in assay [6], 56.3 µM; in assay [7], greater than 100 µM. Further, the TGI was 38 µM in assay [8], 47.3 µM in assay [9], greater than 100 µM in assay [11] and greater than 100 µM in assay [12].

In the case of `CC1CC(OP(=O)(OCc2ccccc2)OCc2ccccc2)[C@@H](OCc2ccccc2)C(OCc2ccccc2)C1OCc1ccccc1` (some centres undefined), the TGI in assay [1], in assay [2], in assay [3], in [4], in assay [13] and in assay [6] was greater than 100 µM throughout. Further, the TGI in [7], in [8], in assay [9], in assay [10], in assay [11] and in [12] was greater than 100 µM in each case.

As to `C=CCc1cccc2cc(C(=O)NCc3ccccc3)c(=N)oc12`, the TGI in [1] is 91.4 µM; in [2], greater than 100 µM; in assay [3] it was greater than 100 µM; in assay [4], 70.7 µM; in assay [13], greater than 100 µM; in assay [5], greater than 100 µM. The TGI was 63.8 µM in assay [6]; greater than 100 µM in [7]; greater than 100 µM in assay [8]; greater than 100 µM in assay [9]; 64.4 µM in [10]; greater than 100 µM in [12].

In the case of `CC(=O)N=C1N(/C=C2\C(=O)Oc3ccccc3C2=O)C(=O)/C(=C/c2cccc(Cl)c2Cl)N1C`, the TGI is greater than 100 µM in assay [1]; 75.3 µM in [2]; 74 µM in assay [3]; greater than 100 µM in assay [4]; 54.4 µM in [13]; 9.38 µM in assay [5]. Also, the TGI in [6] is 26.1 µM; in [7], greater than 100 µM; in assay [8], 34.4 µM; in assay [9], greater than 100 µM; in assay [10] it was 32.2 µM; in [12], greater than 100 µM.

As for `CC1=NN(c2nc(N)nc(/C(C#N)=C\c3ccc([N+](=O)[O-])s3)n2)C(C)(C)C1`, the TGI in assay [1] was 0.289 µM; in assay [2], 2.44 µM; in assay [3] it was 1.61 µM; in assay [4], 1.23 µM; in [13] it was 1.75 µM; in assay [6], greater than 100 µM. Moreover, the TGI is 0.287 µM in [7]; 0.8 µM in [8]; 0.375 µM in assay [9]; 1.84 µM in [10]; 1.26 µM in assay [11]; 0.544 µM in [12].

On to `N#CC1C(=S)NC(c2ccccc2)=CC12CCCCC2` (centres undefined), for which the TGI is greater than 100 µM in assay [1]; 35.7 µM in [2]; greater than 100 µM in assay [3]; 62.1 µM in assay [4]; 55.3 µM in [5]; greater than 100 µM in [6]. For the same compound, the TGI in [7] is 70.2 µM; in assay [8], 84.9 µM; in [9] it was 42.4 µM; in assay [10] it was 90.4 µM; in assay [11], 54.9 µM; in assay [12], greater than 100 µM.

The values are drawn from PubChem BioAssay (NCI).
